“Also recorded” adds a separate entry of the source.
Columns and labels:
[1] = Safety and tolerability in healthy volunteers (adverse events, vital signs, ECG); type: in vivo, human
Experimental: Pulse oximetry and capnography data were collected continuously using a GE Carescape B650 monitoring system from 2 hours prior to dosing and until six hours after dosing, and thereafter at 12, 24, 48 and 72 hours post-dosing. Additional oximetry data were collected at 120, 168 and 216 hours. Pupillary miosis was assessed by pupillometry. Dark-adapted pupil diameter was measured in triplicate using a Neuroptics PLR-200 pupillometer under standardized light intensity (<5 lux) pre-dose, and at 2, 4, 6, 12, 24, 48, 72, 96, 120, 168 and 216 hours post-dosing.
Safety and tolerability of noribogaine were tested in the group of volunteers from Example 1. Cold pressor testing was conducted in 1° C. water according to the method of Mitchell et al. (J Pain 5:233-237, 2004) pre-dose, 6, 24, 48, 72 and 216 hours post-dosing. Safety evaluations included clinical monitoring, recording of adverse events (AEs), safety laboratory tests, vital signs, ECG telemetry from −2 h to 6 h after dosing, and 12-lead electrocardiograms (ECGs) up to 216 hours post-dosing.

[2] = Serum noribogaine pharmacokinetics in opioid-dependent patients (Phase IB); details: 60, 120, 180 mg cohorts
[3] = Treatment emergent adverse events in opioid-dependent participants (Phase IB)
[4] = 3 mg dose group, healthy volunteers
[5] = 10 mg dose group, healthy volunteers
[6] = 30 mg dose group, healthy volunteers

## CC[C@H]1CC2C[C@H]3c4[nH]c5ccc(O)cc5c4CCN(C2)C13 [Noribogaine, noribogaine]
[1]; [4]
  Adverse events, Mild: Dizziness; also recorded: Epistaxis; also recorded: Headache; also recorded: Back pain
  Adverse events, Moderate: Headache
  number of adverse events reported: five adverse events were reported by two subjects
[1]; [5]
  Adverse events, Mild: Headache
  number of adverse events reported: one adverse event was reported by single subjects
[1]; [6]
  Adverse events, Mild: Headache
  number of adverse events reported: one adverse event was reported by single subjects
[1]; 3-60 mg, healthy volunteers
  changes in oximetry, capnography, respiratory rate: no changes in oximetry or capnography, or changes in respiratory rate
  changes in vital signs or safety laboratory tests: no changes in vital signs or safety laboratory tests of note
[1]; 3-60 mg, healthy volunteers, ECG up to 216 hours
  QTcF values >500 msec: no QTcF values >500 msec at any time
[1]; all dose groups, healthy volunteers
  intensity of adverse events: mild-moderate intensity
[1]; one subject dosed with 10 mg, 24 hours post-dosing
  single increase in QTcF: > 60 ms
[2]
  dose dependence of maximum serum concentration (Cmax): increased in a dose-dependent manner
[3]; 60 mg treatment group
  frequency of headaches: frequent
[3]; 120 mg and 180 mg dose groups
  frequency of headaches: attenuated
[3]; 60-180 mg, opioid-dependent participants
  hallucinatory effects: no hallucinatory effects
[3]; single 60 mg dose, N = 6
  Treatment Emergent AE: Catheter Site Infection: 0
  Treatment Emergent AE: Catheter Site Pain: 0
  Treatment Emergent AE: Catheter Site Related Reaction: 0
  Treatment Emergent AE: Cellulitis: 0
  Treatment Emergent AE: Diarrhoea: 0
  Treatment Emergent AE: Dry Mouth: 0
  Treatment Emergent AE: Ear and Labyrinth Disorders: 0
  Treatment Emergent AE: Epistaxis: 0
  Treatment Emergent AE: Euphoric Mood: 0
  Treatment Emergent AE: General Disorders and Administration Site Conditions: 0
  Treatment Emergent AE: Hyperaesthesia: 0
  Treatment Emergent AE: Infections and Infestations: 0
  Treatment Emergent AE: Limb Discomfort: 0
  Treatment Emergent AE: Malaise: 0
  Treatment Emergent AE: Nausea: 0
  Treatment Emergent AE: Oropharyngeal Pain: 0
  Treatment Emergent AE: Pseudoparalysis: 0
  Treatment Emergent AE: Respiratory, Thoracic and Mediastinal Disorders: 0
  Treatment Emergent AE: Rhinorrhoea: 0
  Treatment Emergent AE: Skin Discomfort: 0
  Treatment Emergent AE: Skin Irritation: 0
  Treatment Emergent AE: Skin and Subcutaneous Tissue Disorders: 0
  Treatment Emergent AE: Somnoience: 0
  Treatment Emergent AE: Tinnitus: 0
  Treatment Emergent AE: Tremor: 0
  Treatment Emergent AE: Urinary Tract Infection: 0
  Treatment Emergent AE: Vomiting: 0
[3]; single 120 mg dose, N = 6
  Treatment Emergent AE: Back Pain: 0
  Treatment Emergent AE: Catheter Site Infection: 0
  Treatment Emergent AE: Catheter Site Related Reaction: 0
  Treatment Emergent AE: Depressed Mood: 0
  Treatment Emergent AE: Dry Eye: 0
  Treatment Emergent AE: Dyspepsia: 0
  Treatment Emergent AE: Euphoric Mood: 0
  Treatment Emergent AE: Limb Discomfort: 0
  Treatment Emergent AE: Malaise: 0
  Treatment Emergent AE: Musculoskeletal and Connective Tissue Disorders: 0
  Treatment Emergent AE: Psychiatric Disorders: 0
  Treatment Emergent AE: Somnoience: 0
  Treatment Emergent AE: Urinary Tract Infection: 0
[3]; single 180 mg dose, N = 6
  Treatment Emergent AE: Catheter Site Infection: 0
  Treatment Emergent AE: Catheter Site Pain: 0
  Treatment Emergent AE: Depressed Mood: 0
  Treatment Emergent AE: Diarrhoea: 0
  Treatment Emergent AE: Dry Eye: 0
  Treatment Emergent AE: Dyspepsia: 0
  Treatment Emergent AE: Ear and Labyrinth Disorders: 0
  Treatment Emergent AE: Epistaxis: 0
  Treatment Emergent AE: Euphoric Mood: 0
  Treatment Emergent AE: Hyperaesthesia: 0
  Treatment Emergent AE: Malaise: 0
  Treatment Emergent AE: Oropharyngeal Pain: 0
  Treatment Emergent AE: Pseudoparalysis: 0
  Treatment Emergent AE: Psychiatric Disorders: 0
  Treatment Emergent AE: Respiratory, Thoracic and Mediastinal Disorders: 0
  Treatment Emergent AE: Rhinorrhoea: 0
  Treatment Emergent AE: Skin Discomfort: 0
  Treatment Emergent AE: Skin Irritation: 0
  Treatment Emergent AE: Skin and Subcutaneous Tissue Disorders: 0
  Treatment Emergent AE: Somnoience: 0
  Treatment Emergent AE: Tinnitus: 0
  Treatment Emergent AE: Tremor: 0

Reference: US9549935B2, “Methods and compositions for treating migraines using noribogaine” (DemeRx, Inc., priority 2014, dated 2017)
